Data reported in patent publication US6828458B2, “Topical antiandrogen for hair loss and other hyperandrogenic conditions” (Biophysica, Inc., priority 2000, dated 2004).
Where two headings read alike, the source gives them in different places.

How the values were obtained:
[1] = tested on: mice; details: cited from earlier work
[2] = biological target: T1, Androgen Receptor (Homo sapiens, UniProt P10275, T878A); assay: Androgen receptor remaining in LNCaP cells after incubation, Western Blot of lysate; type: cell-based; details: for Percent Androgen Receptor Remaining in LNCaP Cells: 48 hrs. incubation
T1 construct: endogenous in cells; host or cells: LNCaP cells
T1 sequence (P10275 1-920 T878A): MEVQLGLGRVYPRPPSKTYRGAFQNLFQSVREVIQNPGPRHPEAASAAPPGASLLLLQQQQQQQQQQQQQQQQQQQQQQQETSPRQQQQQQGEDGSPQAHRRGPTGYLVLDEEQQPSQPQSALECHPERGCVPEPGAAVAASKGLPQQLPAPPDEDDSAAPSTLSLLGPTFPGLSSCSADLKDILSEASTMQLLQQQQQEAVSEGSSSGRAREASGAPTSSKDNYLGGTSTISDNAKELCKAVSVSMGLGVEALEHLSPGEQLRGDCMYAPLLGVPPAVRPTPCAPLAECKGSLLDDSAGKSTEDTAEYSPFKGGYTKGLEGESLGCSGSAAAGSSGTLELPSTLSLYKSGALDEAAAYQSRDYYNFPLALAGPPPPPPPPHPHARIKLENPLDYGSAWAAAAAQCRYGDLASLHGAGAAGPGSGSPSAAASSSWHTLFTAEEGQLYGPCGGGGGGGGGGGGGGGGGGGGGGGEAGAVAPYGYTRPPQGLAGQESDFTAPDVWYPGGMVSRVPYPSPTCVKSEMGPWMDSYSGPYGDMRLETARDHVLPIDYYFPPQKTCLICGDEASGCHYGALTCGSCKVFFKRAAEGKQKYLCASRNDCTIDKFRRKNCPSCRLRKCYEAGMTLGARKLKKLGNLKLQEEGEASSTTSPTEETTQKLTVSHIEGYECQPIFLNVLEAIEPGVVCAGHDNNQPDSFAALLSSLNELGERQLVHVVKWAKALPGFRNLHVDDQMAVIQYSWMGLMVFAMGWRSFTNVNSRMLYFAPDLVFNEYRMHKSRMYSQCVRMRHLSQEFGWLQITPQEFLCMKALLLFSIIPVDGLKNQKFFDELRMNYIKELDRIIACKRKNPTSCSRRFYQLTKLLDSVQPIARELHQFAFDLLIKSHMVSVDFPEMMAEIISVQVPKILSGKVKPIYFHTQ
Procedure: The interaction of BP-766 with androgenic receptors was studied by incubation with LNCaP cells, (known to contain human AR), subsequent cell lysis and the Western Blot assay to identify and quantify the androgenic receptors protein.

[3] = tested on: mice; assay: Systemic toxicity by intraperitoneal injections in mice; type: in vivo, mouse
Procedure: (§1) The systemic toxicity of BP-766 was orientationally evaluated by multiple intraperitoneal (i.p.) injections in mice. […] […] The murine maximum tolerated dose (MTD) was approximately 300 mg/kg.

[4] = Cutaneous absorption in rabbits, serum analyzed by HPLC; type: in vivo, rabbit; details: BP-766 topical twice daily (0.6 mg/kg-day) for ten days, limit of detection approximately 10 ng/ml
Procedure: (§2) BP-766 was applied topically twice daily to simulate the intended human application (0.6 mg/kg-day), on the two 10 cm^2 separate areas of a closely shaved skin of four rabbits, for ten days. One ml blood samples were collected at 2, 5 and 21 hours after the first application, and once every other day thereafter. Serum was analyzed by HPLC. Using spiked and blank serum samples and a linearity determination, the limits of detection of BP-766 and/or BP-34 were established as approximately 10 ng/ml. […] The cutaneous absorption in rabbits is known to be about 5 to 6 times greater than in humans (Marzulic, F. N. and Maibach, H.: Dermatotoxicology, 5th Edition, Taylor & Frasier, Washington, D.C. 1966) so that even with the detection limits of this method, only trace amounts could ever be expected in humans.

[5] = tested on: volunteers with incipient androgenic effluvium and/or alopecia; assay: Topical treatment of volunteers with androgenic effluvium and/or alopecia; type: in vivo, human
[6] = Acute oral toxicity in NMRI mice; details: mouse, in vivo, probit analysis
Procedure: (§3) Acute oral toxicity of BP-766 was determined in NMRI mice and Wistar rats.

[7] = tested on: Wistar rats; assay: Acute oral toxicity in Wistar rats; type: in vivo, rat; details: male and female
Procedure: as §3

[8] = Accelerated shelf stability of formulated solutions, HPLC; type: physicochemical; details: for BP-766 remaining: anhydrous isopropanol
Source text: (Table 3). […] (Connors, Kenneth A; Amidon, Gordon L.; Stella, Valentino J. Chemical Stability of Pharmaceuticals—A Handbook for Pharmacists. Second Edition, 1986, John Wiley & Sons)

[9] = Systemic toxicity by intraperitoneal injections in mice; type: in vivo, mouse; details: mouse, in vivo, ip, i.p. injections, read-out: murine maximum tolerated dose (MTD)
Procedure: as §1

[10] = tested on: rabbits; assay: Skin irritation potential according to ISO 10 993-10; type: in vivo, rabbit
Procedure: BP-766 was also evaluated by an independent laboratory according to ISO 10 993-10, in rabbits. A single application of 0.5 ml as a 1% (m/v) solution in anhydrous isopropyl alcohol and/or the vehicle only was employed. The application site was covered in one group, and not covered in an other group, each consisting of six rabbits. […] Non-irritability was defined by an arbitrary index, ranging from 0 to 0.4.

[11] = tested on: rabbits; assay: Cutaneous irritation observed daily in rabbits during ten-day topical application; type: in vivo, rabbit; details: topical twice daily for ten days
Procedure: as §2

[12] = Biodegradation in human serum, HPLC; type: in vitro ADME; details: 38° C., 0.5 mg/ml
Procedure: BP-766 was tested for degradation by incubation with human serum at 38° C., at a concentration of 0.5 mg/ml. It would be desirable for safety that should BP-766 for any unexpected reason be resorbed from the skin, it should decompose into rapidly excretable non-toxic components. The only products of biodegradation of BP-766 are the precursor BP-34, and trifluoroacetic acid, which both have good biological tolerance. […] (Permadi, H; Lundgren, B; Andersson K; Sundberg C; DePierre J W. Effects of perfluoro fatty acids on peroxisome proliferation and mitochondrialsize in mouse liver: dose and time factors and effect of chain length. Xenobiotica, (1993) Vol 23, No. 7, pp. 761-70). Orientational toxicity of BP-34 is described further below.

O=C(O)C(F)(F)F [trifluoroacetic acid]
toxicity when fed to mice [1]: showed no toxicity

CC(C)(O)C(=O)Nc1ccc([N+](=O)[O-])c(C(F)(F)F)c1 [Hydroxyflutamide, reference compound]
Percent Androgen Receptor Remaining in LNCaP Cells ([2]; 3 μ Molar conc.): 98%
Percent Androgen Receptor Remaining in LNCaP Cells ([2]; 10 μ Molar conc.): 94%
effect on the androgenic receptors (in words) ([2]; any concentration, after 48 hrs.): did not a affect the androgenic receptors significantly

4-nitro-3-trifluoromethyl-N-(2-hydroxy-2-methyl-3-amino [BP-34]
effect on the androgenic receptors (in words) [2]: had no effect on the androgenic receptors
Percent Androgen Receptor Remaining in LNCaP Cells ([2]; 3 μ Molar conc.): 97%
Percent Androgen Receptor Remaining in LNCaP Cells ([2]; 10 μ Molar conc.): 98%
murine maximum tolerated dose (MTD) ([3]; i.p. injections): approximately 250 mg/kg
mortality ([3]; i.p. injections of 100-300 mg/kg): no mortalities
morbidity / mortality ([3]; i.p., 300 mg/kg): Morbidity, but not mortality, was observed
BP-766 and/or BP-34 found in serum [4]: No BP-766 or BP-34 was found in any of the samples

CC(O)(CNC(=O)C(F)(F)F)C(=O)Nc1ccc([N+](=O)[O-])c(C(F)(F)F)c1 (centres unmarked) [BP-766, 2-hydroxy-2-methyl-N-(4-nitro-3-(trifluoromethyl)phenyl)-3-(2,2,2-trifluoroacetylamino)propanamide]
dermal irritation ([5]; six volunteers, 2% solution in anhydrous isopropanol, 1 ml twice daily on the scalp, 8 weeks): no dermal irritation
effluvium of the frontal hairline ([5]; six volunteers, 2% solution, 1 ml twice daily, after 2 weeks): arrested the effluvium of the frontal hairline in all six volunteers
hair regrowth ([5]; two volunteers, after 4 months use): an evident regrowth was observed
LD50 ([6]; female NMRI mice): 2230 mg/kg
LD50 ([6]; male NMRI mice): 2870 mg/kg
LD50 [7]: greater than 2500 mg/kg body weight
% BP-766 ([8]; 60/40 EtOH/H2O, 55° C., 0 hours): 100%
% BP-766 ([8]; 60/40 EtOH/H2O, 55° C., 24 hours): 99.1%
% BP-766 ([8]; 60/40 EtOH/H2O, 55° C., 48 hours): 98.2%
% BP-766 ([8]; 60/40 EtOH/H2O, RT, 0 hours): 100%
% BP-766 ([8]; 60/40 EtOH/H2O, RT, 24 hours): 99.9%
% BP-766 ([8]; 60/40 EtOH/H2O, RT, 48 hours): 99.69%
% BP-766 ([8]; Isopropanol (3-5% water), 55° C., 0 hours): 100%
% BP-766 ([8]; Isopropanol (3-5% water), 55° C., 6 hours): 99.6%
% BP-766 ([8]; Isopropanol (3-5% water), 55° C., 24 hours): 99.1%
% BP-766 ([8]; Isopropanol (3-5% water), 55° C., 144 hours): 98.7%
BP-766 remaining ([8]; 0 weeks): 100%
BP-766 remaining ([8]; 1 week): 99.6%
BP-766 remaining ([8]; 2 weeks): 99.4%
BP-766 remaining ([8]; 3 weeks): 99.3%
BP-766 remaining ([8]; 4 weeks): 99.2%
BP-766 remaining ([8]; 5 weeks): 98.9%
BP-766 remaining ([8]; 6 weeks): 98.8%
BP-766 remaining ([8]; 7 weeks): 98.3%
BP-766 remaining ([8]; 8 weeks): 98.4%
LD50 (daily dose for seven days that resulted in 50% mortality) ([3]; i.p., daily for seven days): 450 mg/kg bw
MTD at 7 days [9]: ~300 mg/kg
skin irritation potential [10]: no skin irritation potential was found
signs of cutaneous irritation [11]: none was detected
% BP-766 remaining in human serum ([12]; 0 hours): 100%
% BP-766 remaining in human serum ([12]; 6 hours): 54.3%
% BP-766 remaining in human serum ([12]; 24 hours): 10.9%
% BP-766 remaining in human serum ([12]; 48 hours): Traces
